Measurements published in PMC6917776, “Discovery of a chemical probe for PRDM9” (Nature Communications, 2019).
Where two headings read alike, the source gives them in different places.

Assays:
Assay type in all cases: biochemical
[1] = target: T1, G9a (Homo sapiens, UniProt Q96KQ7); experiment: Methyltransferase selectivity assay (SPA)
T1 construct: purchased Structural Genomics Consortium (SGC Toronto) in-house methyltransferase panel
T1 sequence (Q96KQ7 1-1210): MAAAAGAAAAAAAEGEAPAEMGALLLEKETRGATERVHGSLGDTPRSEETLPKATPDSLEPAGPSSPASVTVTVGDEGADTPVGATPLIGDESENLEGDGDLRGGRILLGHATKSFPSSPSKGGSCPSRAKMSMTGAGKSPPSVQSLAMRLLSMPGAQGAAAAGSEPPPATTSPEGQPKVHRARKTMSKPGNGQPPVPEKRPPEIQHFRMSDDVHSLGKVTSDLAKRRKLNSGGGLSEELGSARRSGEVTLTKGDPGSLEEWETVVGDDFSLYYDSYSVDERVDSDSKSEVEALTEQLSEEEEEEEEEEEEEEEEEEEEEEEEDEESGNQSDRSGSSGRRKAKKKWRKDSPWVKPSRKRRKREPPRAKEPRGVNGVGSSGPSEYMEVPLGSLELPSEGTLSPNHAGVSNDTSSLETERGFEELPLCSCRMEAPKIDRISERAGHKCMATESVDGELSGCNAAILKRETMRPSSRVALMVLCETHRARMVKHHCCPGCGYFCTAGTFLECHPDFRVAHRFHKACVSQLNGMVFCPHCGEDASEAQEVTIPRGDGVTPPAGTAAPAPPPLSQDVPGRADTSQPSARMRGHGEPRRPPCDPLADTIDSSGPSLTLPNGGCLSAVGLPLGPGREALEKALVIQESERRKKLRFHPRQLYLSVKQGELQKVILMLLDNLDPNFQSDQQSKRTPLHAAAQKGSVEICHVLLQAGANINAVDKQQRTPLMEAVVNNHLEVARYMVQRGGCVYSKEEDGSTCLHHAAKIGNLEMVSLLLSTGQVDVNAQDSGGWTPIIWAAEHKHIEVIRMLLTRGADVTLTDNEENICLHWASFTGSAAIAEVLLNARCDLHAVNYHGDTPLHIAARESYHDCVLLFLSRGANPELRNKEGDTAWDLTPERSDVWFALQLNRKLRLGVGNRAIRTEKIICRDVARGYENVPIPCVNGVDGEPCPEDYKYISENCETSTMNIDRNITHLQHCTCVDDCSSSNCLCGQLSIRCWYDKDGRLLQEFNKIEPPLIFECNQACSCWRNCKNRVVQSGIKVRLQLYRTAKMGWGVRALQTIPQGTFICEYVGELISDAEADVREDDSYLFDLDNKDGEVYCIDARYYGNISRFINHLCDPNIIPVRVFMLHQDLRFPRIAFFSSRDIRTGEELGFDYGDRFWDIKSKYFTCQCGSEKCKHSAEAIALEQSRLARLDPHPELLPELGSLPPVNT
Experimental: (§1) Selectivity against methyltransferases were determined as described previously. Details of the assays are described in the supplementary methods.
(§2) Methyltransferase selectivity assay1
(§3) The effect of chemical probes and negative controls on the methyltransferase activities of protein, DNA and RNA methyltransferases was tested by radiometric assays using 3H-SAM. For proteins such as MLL1 trimeric, MLL3 pentameric, EZH1 (PRC2) pentameric, and EZH2 (PRC2) trimeric complexes, as well as G9a, GLP, SUV39H1, SUV39H2, SUV420H1, SUV420H2, SETD2, SETD8, SETDB1, SETD7, PRMT1, PRMT3, PRMT4, PRMT5/ MEP50 complex, PRMT6, PRMT7, PRMT8, PRMT9, PRDM9, SMYD2, SMYD3, DNMT1, and BCDIN3D the incorporation of a tritium-labeled methyl group into biotinylated substrate was monitored using scintillation proximity assay (SPA). Briefly, a 10 µL reaction containing 3H-SAM and substrate at concentrations close to the apparent Km values for each enzyme (balanced conditions) was prepared. The reactions were quenched with 10 µL of 7.5 M guanidine hydrochloride; 180 µL of 20 mM Tris buffer (pH 8.0) were added, and the mixture was transferred to a 96-well FlashPlate and incubated for 1 h. The counts per minute (CPM) was measured on a TopCount plate reader. The CPM in the absence of compound or enzyme was defined as 100% activity and background (0%), respectively, for each dataset. For DNMT1, the double-stranded DNA substrate was prepared by annealing two complementary strands (biotinylated forward strand: B-[…] and reverse strand:
(§4) ) that were synthesized by Eurofins MWG Operon
(§5) For proteins which were tested with nucleosome as substrate such as DOT1L, NSD1, NSD2, NSD3, and ASH1L, or unbiotinylated Poly(2′-deoxyinosinic-2′-deoxycytidylic acid) (Cat# 81349-500UG, Sigma Aldrich) such as DNMT3A/3L, and DNMT3B/3L, a filter-based assay was used. In this assay, a trichloroacetic acid (TCA) protein precipitation protocol was employed. A 10 µL reaction mixture was incubated at 23°C for 1 h, followed by addition of 50 µL of 10% TCA. The mixture was transferred to filter plates (Millipore, Billerica, MA, USA) that were centrifuged at 2000 rpm (Allegra X-15R; Beckman Coulter, Brea, CA, USA) for 2 min. Samples were washed twice with 10% TCA and once with ethanol (180 µL), and centrifuged. After drying, 100 µL MicroScint-O (Perkin Elmer) was added to each well and the plates were centrifuged to remove the liquid. A 70 µL volume of MicroScint-O was added and the CPM was measured with a TopCount plate reader.

[2] = target: T2, BCDIN3D (Homo sapiens, UniProt Q7Z5W3); experiment: Methyltransferase selectivity assay (SPA)
T2 construct: purchased Structural Genomics Consortium (SGC Toronto) in-house methyltransferase panel
T2 sequence (Q7Z5W3 1-292): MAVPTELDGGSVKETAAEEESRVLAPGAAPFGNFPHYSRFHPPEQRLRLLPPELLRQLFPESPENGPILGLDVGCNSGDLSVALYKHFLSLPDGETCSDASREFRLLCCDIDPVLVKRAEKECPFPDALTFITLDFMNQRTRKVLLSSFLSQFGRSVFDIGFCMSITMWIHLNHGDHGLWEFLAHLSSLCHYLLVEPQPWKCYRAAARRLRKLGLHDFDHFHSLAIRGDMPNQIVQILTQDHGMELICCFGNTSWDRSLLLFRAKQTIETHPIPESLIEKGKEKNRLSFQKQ
Experimental: as §1, §2, §3, §4, §5

[3] = target: T3, DNMT3A/3L (Homo sapiens, UniProt Q9Y6K1); experiment: Methyltransferase selectivity assay (filter-based)
T3 construct: purchased Structural Genomics Consortium (SGC Toronto) in-house methyltransferase panel
Experimental: as §1, §2
The effect of chemical probes and negative controls on the methyltransferase activities of protein, DNA and RNA methyltransferases was tested by radiometric assays using 3H-SAM. […]
Briefly, a 10 µL reaction containing 3H- […]
The CPM in the absence of compound or enzyme was defined as 100% activity and background (0%), respectively, for each dataset. […]
as §5

[4] = 10µM compound, Exp1, Exp2, 10 µM
[5] = 1µM compound, Exp1, Exp2, read-out: Activity %
[6] = 10µM compound, Exp1, Exp2, read-out: Activity %

T3 sequence (Q9Y6K1 whole entry, looked up): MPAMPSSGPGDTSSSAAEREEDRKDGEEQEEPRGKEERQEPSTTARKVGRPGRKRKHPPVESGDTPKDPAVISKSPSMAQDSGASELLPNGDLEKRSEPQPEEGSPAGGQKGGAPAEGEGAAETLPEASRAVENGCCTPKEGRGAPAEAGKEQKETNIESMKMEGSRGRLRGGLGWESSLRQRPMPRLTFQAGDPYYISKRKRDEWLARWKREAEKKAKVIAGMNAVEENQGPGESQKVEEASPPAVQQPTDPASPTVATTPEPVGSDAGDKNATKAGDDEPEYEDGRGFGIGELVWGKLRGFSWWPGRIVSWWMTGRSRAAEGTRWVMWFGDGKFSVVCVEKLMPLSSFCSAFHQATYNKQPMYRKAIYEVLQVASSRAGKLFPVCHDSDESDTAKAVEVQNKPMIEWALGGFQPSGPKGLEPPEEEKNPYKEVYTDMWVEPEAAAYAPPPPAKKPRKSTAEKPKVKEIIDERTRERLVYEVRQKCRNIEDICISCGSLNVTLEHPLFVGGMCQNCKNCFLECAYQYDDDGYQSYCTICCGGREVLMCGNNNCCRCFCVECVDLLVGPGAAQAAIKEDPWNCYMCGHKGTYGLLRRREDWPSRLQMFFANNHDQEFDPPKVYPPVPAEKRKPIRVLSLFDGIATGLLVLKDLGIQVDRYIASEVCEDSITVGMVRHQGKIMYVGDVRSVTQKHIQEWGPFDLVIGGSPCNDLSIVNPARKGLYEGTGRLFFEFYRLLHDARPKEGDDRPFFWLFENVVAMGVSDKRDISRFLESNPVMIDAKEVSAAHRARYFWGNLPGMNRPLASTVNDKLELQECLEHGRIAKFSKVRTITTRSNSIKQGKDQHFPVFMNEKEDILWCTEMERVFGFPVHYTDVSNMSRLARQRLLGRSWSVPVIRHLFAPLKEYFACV
T3 sequence (Q9UJW3 whole entry partner): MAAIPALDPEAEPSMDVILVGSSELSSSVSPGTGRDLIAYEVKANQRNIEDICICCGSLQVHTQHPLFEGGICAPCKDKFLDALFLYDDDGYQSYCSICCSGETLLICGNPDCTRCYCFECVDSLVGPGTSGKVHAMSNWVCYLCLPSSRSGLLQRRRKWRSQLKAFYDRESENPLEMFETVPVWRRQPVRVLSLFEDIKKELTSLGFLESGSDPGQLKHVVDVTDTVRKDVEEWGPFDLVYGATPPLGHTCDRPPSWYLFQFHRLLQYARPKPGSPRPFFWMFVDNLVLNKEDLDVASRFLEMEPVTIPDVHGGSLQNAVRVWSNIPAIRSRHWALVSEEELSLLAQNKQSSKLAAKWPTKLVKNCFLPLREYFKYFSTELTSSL

| SMILES | activity at 1 µM ([1]; 1µM compound, Exp1, Exp2) [%] | Activity % ([1]; 1µM compound, Exp1, Exp2, 1 µM) [%] | activity at 10 µM ([1]; 10µM compound, Exp1, Exp2) [%] | Activity % [1, 4] [%] | activity at 1 µM ([2]; 1µM compound, Exp1, Exp2) [%] | Activity % ([2]; 1µM compound, Exp1, Exp2, 1 µM) [%] | activity at 10 µM ([2]; 10µM compound, Exp1, Exp2) [%] | Activity % [2, 4] [%] | activity at 1 µM ([3]; 1µM compound, Exp1, Exp2) [%] | Activity % ([3]; 1µM compound, Exp1, Exp2, 1 µM) [%] | activity at 10 µM ([3]; 10µM compound, Exp1, Exp2) [%] | Activity % [3, 4] [%] | activity at 1 µM [1, 5] [%] | activity at 10 µM [1, 6] [%] | activity at 1 µM [2, 5] [%] | activity at 10 µM [2, 6] [%] | activity at 1 µM [3, 5] [%] | activity at 10 µM [3, 6] [%] |
| --- | --- | --- | --- | --- | --- | --- | --- | --- | --- | --- | --- | --- | --- | --- | --- | --- | --- | --- |
| COc1cc(OC)cc(-c2noc(N3CCN(C)C4(CCN(c5ccccc5)CC4)C3)n2)c1 [MRK-740 -NC] | 101 | 100 | 95 | 93 | 103 | 101 | 100 | 94 | 100 | 91 | 96 | 87 |  |  |  |  |  |  |
| COc1cc(OC)cc(-c2noc(N3CCN(C)C4(CCN(c5ccnc(C)c5)CC4)C3)n2)c1 [MRK-740] |  | 89 |  |  |  | 100 |  | 95 |  | 107 |  |  | 93 | 94 | 101 | 104 | 108 | 100 |
